# Data: ChEMBL document CHEMBL1201862, “PubChem BioAssay data set” (2004)
#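 Cultured in 96-well plates, cells were exposed to test compound for 48 hours across five concentrations. GI50 marks 50% less growth.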 Active and inactive are the calls of the source. Rule as the data show it: active = GI50 up to about 1.1 µM and inactive = higher.
# How the values were obtained:
# Assay in all cases: inhibition of tumour cell growth, NCI panel, 48 h
# 786-0 = test system: 786-0
# A498 = test system: A498
# A549 = test system: A549
# ACHN = test system: ACHN
# CAKI-1 = test system: CAKI-1
# CCRF-CEM = test system: CCRF-CEM
# COLO 205 = test system: COLO 205
# DLD-1 = test system: DLD-1
# DMS-114 = test system: DMS-114
# EKVX = test system: EKVX
# HCC 2998 = test system: HCC 2998
# HCT-116 = test system: HCT-116
# HCT-15 = test system: HCT-15
# HL-60 = test system: HL-60
# HOP-18 = test system: HOP-18
# HOP-62 = test system: HOP-62
# HOP-92 = test system: HOP-92
# HT-29 = test system: HT-29
# IGROV-1 = test system: IGROV-1
# K562 = test system: K562
# KM-20L2 = test system: KM-20L2
# KM12 = test system: KM12
# LOX IMVI = test system: LOX IMVI
# LXFL 529 = test system: LXFL 529
# M14 = test system: M14
# M19-MEL = test system: M19-MEL
# MOLT-4 = test system: MOLT-4
# Malme-3M = test system: Malme-3M
# NCI-H226 = test system: NCI-H226
# NCI-H23 = test system: NCI-H23
# NCI-H460 = test system: NCI-H460
# NCI-H522 = test system: NCI-H522
# OVCAR-3 = test system: OVCAR-3
# OVCAR-4 = test system: OVCAR-4
# OVCAR-5 = test system: OVCAR-5
# OVCAR-8 = test system: OVCAR-8
# RPMI-8226 = test system: RPMI-8226
# RXF 393 = test system: RXF 393
# RXF 631 = test system: RXF 631
# SF-268 = test system: SF-268
# SF-295 = test system: SF-295
# SF-539 = test system: SF-539
# SK-MEL-28 = test system: SK-MEL-28
# SK-MEL-2 = test system: SK-MEL-2
# SK-MEL-5 = test system: SK-MEL-5
# SK-OV-3 = test system: SK-OV-3
# SN12C = test system: SN12C
# SNB-19 = test system: SNB-19
# SNB-75 = test system: SNB-75
# SNB-78 = test system: SNB-78
# SR = test system: SR
# SW-620 = test system: SW-620
# TK-10 = test system: TK-10
# U-251 = test system: U-251
# UACC-257 = test system: UACC-257
# UACC-62 = test system: UACC-62
# UO-31 = test system: UO-31
structure (smiles),measurement,setting,value
C=C(C=O)[C@@H]1C2OC(=O)C(=C)[C@@H]2CC(O)[C@@]1(C)CC (some centres not stated),GI50,786-0,3.32 µM (inactive)
same,GI50,A498,17.1 µM (inactive)
same,GI50,A549,32.8 µM (inactive)
same,GI50,ACHN,13.7 µM (inactive)
same,GI50,CAKI-1,9.38 µM (inactive)
same,GI50,CCRF-CEM,2.08 µM (inactive)
same,GI50,COLO 205,5.66 µM (inactive)
same,GI50,DLD-1,2.75 µM (inactive)
same,GI50,DMS-114,14.8 µM (inactive)
same,GI50,EKVX,18.2 µM (inactive)
same,GI50,HCC 2998,16.6 µM (inactive)
same,GI50,HCT-116,3.78 µM (inactive)
same,GI50,HCT-15,6.22 µM
same,GI50,HL-60,2.25 µM (inactive)
same,GI50,HOP-18,26.1 µM (inactive)
same,GI50,HOP-62,50.2 µM (inactive)
same,GI50,HOP-92,2.33 µM (inactive)
same,GI50,HT-29,6.75 µM (inactive)
same,GI50,IGROV-1,10.7 µM (inactive)
same,GI50,K562,3.27 µM (inactive)
same,GI50,KM-20L2,12.2 µM (inactive)
same,GI50,KM12,13.1 µM (inactive)
same,GI50,LOX IMVI,15.8 µM (inactive)
same,GI50,LXFL 529,3.08 µM (inactive)
same,GI50,M14,4.83 µM (inactive)
same,GI50,M19-MEL,5.48 µM (inactive)
same,GI50,MOLT-4,2.48 µM (inactive)
same,GI50,Malme-3M,6.21 µM (inactive)
same,GI50,NCI-H226,32 µM (inactive)
same,GI50,NCI-H23,7.23 µM (inactive)
same,GI50,NCI-H460,21.2 µM (inactive)
same,GI50,NCI-H522,1.87 µM (inactive)
same,GI50,OVCAR-3,6.71 µM (inactive)
same,GI50,OVCAR-4,11.5 µM (inactive)
same,GI50,OVCAR-5,17.8 µM (inactive)
same,GI50,OVCAR-8,4.37 µM (inactive)
same,GI50,RPMI-8226,2.93 µM (inactive)
same,GI50,RXF 393,2.11 µM (inactive)
same,GI50,RXF 631,19.2 µM (inactive)
same,GI50,SF-268,23.8 µM (inactive)
same,GI50,SF-295,22.4 µM (inactive)
same,GI50,SF-539,9.29 µM (inactive)
same,GI50,SK-MEL-28,3.83 µM (inactive)
same,GI50,SK-MEL-2,13.2 µM (inactive)
same,GI50,SK-MEL-5,6.78 µM (inactive)
same,GI50,SK-OV-3,> 60.5 µM (inactive)
same,GI50,SN12C,10.1 µM (inactive)
same,GI50,SNB-19,45.2 µM (inactive)
same,GI50,SNB-75,> 100 µM (inactive)
same,GI50,SNB-78,6.17 µM (inactive)
same,GI50,SR,3.4 µM (inactive)
same,GI50,SW-620,3.16 µM (inactive)
same,GI50,TK-10,15.7 µM (inactive)
same,GI50,U-251,11.7 µM (inactive)
same,GI50,UACC-257,11.9 µM (inactive)
same,GI50,UACC-62,4.12 µM (inactive)
same,GI50,UO-31,21.3 µM (inactive)
